Measurements taken from patent US8853264B2, “Use of lignan compounds for treating or preventing inflammatory disease” (Newtree Industry Co., Ltd., priority 2005, dated 2014).

Columns and labels:
TNF-α mRNA = TNF-α mRNA level in skin lesion (RT-PCR); type: in vivo, NC/Nga mice
Method: In order to induce atopic dermatitis, 100 mg of mite antigen cream was applied on the ear, occipital region and back of NC/Nga mouse (9 to 11 weeks old), except for the negative control group, 3 times a week, 2 hours after the application of 4% SDS solution. Three weeks later, it was observed whether atopic dermatitis was induced by checking skin rash, erythema, cornification, or the like. Atopic dermatitis was induced in all groups except for the negative control group. […] Transepidermal water loss (TEWL), skin hydration and erythema index were measured one day before the end of the test. […]
After the end of the experiment, skin tissue was isolated from the occipital region to the back of the mouse, immersed in liquid nitrogen, pulverized using a mortar, dissolved in 500 μL of TRIzol® (InvitrogenLife Technologies, USA), and then homogenized using a homogenizer in order to measure mRNA level of cytokines in skin lesion. […] After the centrifuge, the supernatant was discarded and the remaining pellets were washed 2 times with 100% ethanol, dried, and then subjected to RNA quantification by spectrophotometry. […]

[1] = Airway hypersensitivity test, allergen-induced asthma; type: in vivo, C57BL/6 (B6) male mice; conditions: oral administration in corn oil, every day; vs vehicle group; p<0.05
Method: (§1) 5 μL of allergen, AP (aspergillus protease, 1 mg/mL, Sigma-Aldrich, St. Louis, Mo.) was mixed with 45 μL of OVA (chicken egg ovalbumin, 0.5 mg/mL, Sigma-Aldrich). After 3 intraperitoneal injections with 4-day intervals, asthma was induced by 2 intranasal challenges with 4-day interval. The intranasal challenge was performed under isoflurane inhalational anesthesia. Macelignan dissolved in corn oil was orally administered every day.
(§2) Within 24 hours after the last allergen challenge, the mouse was anesthetized by intraperitoneal injection of 0.1 mg/g sodium pentobarbital. After tracheal intubation, flexiVent (Scireq®, Montreal, Canada) was connected to maintain stable ventilation. Thereafter, striated muscle was relaxed by intravenous (IV) administration of 0.08 mg/kg pancuronium (Sigma-Aldrich). Following airway hypersensitivity test by IV administration of acetylcholine (Sigma-Aldrich), 1 mL of DPBS (Dulbecco's phosphate buffered saline) was injected twice into the intubation tube using a syringe for bronchioalveolar lavage. […]
For airway hypersensitivity test, the mouse was anesthetized using sodium pentobarbital and, after tracheal intubation, flexiVent was connected to maintain stable ventilation. […] Immediately after IV administration of acetylcholine, airway resistance was measured 3 times by snapshot. The mean value was recorded as airway resistance.

IL-4 secreting cells = experiment: Counting of IL-4 secreting cells in the lungs (ELISpot), asthma model; type: in vivo, C57BL/6 (B6) male mice; conditions: oral 400 μg/g and 800 μg/g; vs vehicle (corn oil) group
Method: as §1
as §2, with “lavage. Thereafter, the chest was opened and the lungs were subjected to ELISpot assay.” for “lavage.”
When asthma is induced in a mouse, Th2 cells in the lungs increase. […] After addition of substrate dissolved in 0.6% low melting agarose followed by incubation at 4° C., spots were counted within 24 hours to count the number of IL-4 secreting cells in the lungs.

glycoprotein (mucin) = experiment: Glycoprotein level in BAL fluid (ELISA), asthma model; type: in vivo, C57BL/6 (B6) male mice; conditions: oral 400 μg/g and 800 μg/g
Method: as §1
Within 24 hours after the last allergen challenge, the mouse was anesthetized by intraperitoneal injection of 0.1 mg/g sodium pentobarbital. After tracheal intubation, flexiVent (Scireq®, Montreal, Canada) was connected to maintain stable ventilation. Thereafter, striated muscle was relaxed by intravenous (IV) administration of 0.08 mg/kg pancuronium (Sigma-Aldrich). […]
When asthma is induced, secretion of mucin increases in the airway. Glycoprotein ELISA was carried out to quantitate mucin in BAL fluid. […] After blocking, followed by treating with biotinylated jacalin and then with streptavidin-alkaline phosphatase, substrate was added and absorbance was measured at 405 nm Glycoprotein level in the BAL fluid was determined by comparing with the standard curve obtained using the standard solution.

COc1cc(C[C@H](C)[C@H](C)Cc2ccc3c(c2)OCO3)ccc1O (single isomer, unassigned) [macelignan]
TNF-α mRNA level in skin lesion (TNF-α mRNA; oral administration 50 and 150 mg/kg): statistically significant effect of decreasing TNF-α mRNA level | TNF-α mRNA level in skin lesion (TNF-α mRNA; topical application 20 and 60 mg/kg): effect of decreasing TNF-α mRNA level | airway hypersensitivity [1]: statistically significant decrease of airway hypersensitivity | IL-4 secreting cells in the lungs (IL-4 secreting cells): decreased IL-4 secreting cells | glycoprotein level in the BAL fluid (glycoprotein (mucin)): decreased glycoprotein level
